Values after ≈ are worked out from the molar mass of the structure shown.
Experiments:
[1] = mice, 26 weeks of once daily oral gavage administration; cited from earlier work
[2] = tested on: Tg2576 AD model mice and WT (B6/SJL) littermates; experiment: Contextual fear conditioning; assay type: in vivo, mouse; settings: 1-month treatment, mean±standard deviation
Protocol: Contextual Fear Conditioning: The apparatus consisted of a transparent chamber inside an enclosure with an opening in the ceiling to allow video recordings. The chamber consisted of a steel grid floor connected to a shock generator scrambler. The test encompassed two sessions: conditioning and a context test. On the conditioning day, the mice were individually placed in the chamber and allowed to explore freely for 5 minutes during which, at the 180th second, they received a foot shock of 0.50-0.80 mA for 3 seconds through the bars of the floor. 24 hours after conditioning, the mice were individually placed back in the chamber for 4 minutes, this time with no noxious stimuli. The mice were monitored for movement and freezing behaviour was recorded using computer software (Limelight, ActiMetrics, Wilmette, Ill., USA). Exclusion criteria were set for freezing events less than 2 seconds. This test was used to determine associative working memory. We explored the animal's ability to associate an environment with a noxious event that it experienced there. […] Freezing is a species-specific response to fear, which is defined as “the absence of movement except for respiration.” This may last for seconds to minutes depending on the strength of the aversive stimulus and whether the subject is able to recall the shock.

physchem = settings: 100% DMSO, organic solvent or mixture
[3] = tested on: Tg2576 AD model mice and WT (B6/SJL) littermates; experiment: Spontaneous alternation (Y-maze); assay type: in vivo, mouse; settings: drug-treated Tg2576 mice, 1-month treatment; mean±standard deviation
Protocol: Spontaneous alternation (Y-maze): The test for novelty exploration using spatial and working memory was conducted using a symmetrical Y-maze with a grey steel bottom plate and grey Perspex® walls (Stoelting Co, Wood Dale, Ill.). Each arm of the Y-maze was 35 cm long, 5 cm wide, and 10 cm high, and the wall at the end of each arm was identified by a different colour: white, blue or red. The spatial acquisition phase comprised a one-day trial with the mice tracked while moving freely through the three arms of the Y maze during an 8-minute session. The movements were tracked by a computer tracking system (ANY-maze, Stoelting). The performance was gauged by the percentage of alternations that was calculated as the total number of alternations×100/(total number of arm entries−2). Alternation was defined as successive entries into the three arms on overlapping triplet sets. A high percentage of alternation was indicative of sustained cognition, as the animals must remember which arm was entered last to avoid re-entering it.

[4] = tested on: Human brain endothelial cells (HBEC-5i); experiment: Western blot of HBEC-5i cell lysates after peptide treatment; assay type: cell-based; settings: 24 hrs, Aβ peptides 10 μM, Ang-2 200 ng/ml, VEGFA-165 100 ng/ml, vs PBS-treated cells
Protocol: Human brain endothelial cells, HBEC-5i (ATCC® CRL-3245™) were cultured on 0.1% gelatin coated tissue culture plates in DMEM-F12 media (Gibco; cat. #10565-018) supplemented by 10% heat-inactivated fetal bovine serum (FBS) (Gibco; cat. #A31607-01) and 40 μg/ml endothelial growth supplement (Sigma-Aldrich; cat. #E2759). Cells were grown until they reached 70% confluency and then used for experiments.
Cell culture: Human brain endothelial cells were grown in 10 cm tissue culture plates. […] After the treatment, the medium was removed, and cells were washed with PBS and then lysed with RIPA buffer that contained protease and phosphatase inhibitors. These cells were then used to analyze different proteins of interest.
Immunoblotting analysis and co-immunoprecipitation: For western blot analysis, the fractional homogenate samples were prepared with Dithiothreitol (DTT) in the sample buffer (100 mM Tris-Cl (pH 6.8), 4% (w/v) SDS, 0.2% (w/v) bromophenol blue, 20% (v/v) glycerol and 200 mM DTT). Homogenates were electrophoresed and immunoblotted with indicated antibodies. […] The proteins in the eluate were resolved on the acrylamide gel according to standard practices. […] The signal intensities were imaged by using the Odyssey infrared image system (LICOR), and relative levels of immunoreactivity were analyzed by the Image Studio Lite software.

Row | Molecule | no-observed-adverse-effect-levels (NOAELs) [1] | freezing percentage ([2]; drug-treated Tg2576 mice) | freezing percentage ([2]; drug-treated WT (B6/SJL) mice) | solubility (physchem) | percentage of alternation [3] | expression of VEGFR2 [4]
1 | CNC(=O)c1ccccc1Sc1ccc2c(/C=C/c3ccccn3)n[nH]c2c1 [Axitinib] | < 10 mg/kg/day | 14.4±7.3% | 17.74±14.4% | 40 mg/mL (≈ 103 mM) |  | 
2 | CCN(CC)CCNC(=O)c1c(C)[nH]c(/C=C2\C(=O)Nc3ccc(F)cc32)c1C [Sunitinib] |  | 10.9±5.8% | 25.4±19.4% | 30 mg/mL (≈ 75.3 mM) | 49.3±12.1% | 
3 | Aβ1-42 peptide: Aβ1-42 peptide (NovoPrep synthetic peptide), predominantly found in plaques |  |  |  |  |  | did not exert a similar effect
4 | Ang-2 peptide: human Ang-2 peptide (abcam; ab99482), Tie-2 receptor ligand (protein, UniProt O15123 19-496, looked up) Angiopoietin-2: YNNFRKSMDSIGKKQYQVQHGSCSYTFLLPEMDNCRSSSSPYVSNAVQRDAPLEYDDSVQRLQVLENIMENNTQWLMKLENYIQDNMKKEMVEIQQNAVQNQTAVMIEIGTNLLNQTAEQTRKLTDVEAQVLNQTTRLELQLLEHSLSTNKLEKQILDQTSEINKLQDKNSFLEKKVLAMEDKHIIQLQSIKEEKDQLQVLVSKQNSIIEELEKKIVTATVNNSVLQKQQHDLMETVNNLLTMMSTSNSAKDPTVAKEEQISFRDCAEVFKSGHTTNGIYTLTFPNSTEEIKAYCDMEAGGGGWTIIQRREDGSVDFQRTWKEYKVGFGNPSGEYWLGNEFVSQLTNQQRYVLKIHLKDWEGNEAYSLYEHFYLSSEELNYRIHLKGLTGTAGKISSISQPGNDFSTKDGDNDKCICKCSQMLTGGWWFDACGPSNLNGMYYPQRQNTNKFNGIKWYYWKGSGYSLKATTMMIRPADF |  |  |  |  |  | slight increase
